Experimental data reported in ChEMBL document CHEMBL4017448, “Novel pyrazolo[1,5-a]pyridines as orally active EP1 receptor antagonists: Synthesis, structure-activity relationship studies, and biological evaluation” (Bioorg Med Chem, 2017).
One block for each compound: values may come before it.

Key:
[1] = molecular target: T1, Prostaglandin E2 receptor EP1 subtype (Rattus norvegicus, UniProt P70597); test: Antagonist activity at rat EP1 receptor expressed in African green monkey COS1 cells assessed as decrease in prostaglandin E2-induced increase in intracellular calcium level incubated for 90 mins measured for 60 secs by Fluo 4-AM dye based fluorescence assay; type: functional, cell-based
T1 sequence (P70597 whole entry): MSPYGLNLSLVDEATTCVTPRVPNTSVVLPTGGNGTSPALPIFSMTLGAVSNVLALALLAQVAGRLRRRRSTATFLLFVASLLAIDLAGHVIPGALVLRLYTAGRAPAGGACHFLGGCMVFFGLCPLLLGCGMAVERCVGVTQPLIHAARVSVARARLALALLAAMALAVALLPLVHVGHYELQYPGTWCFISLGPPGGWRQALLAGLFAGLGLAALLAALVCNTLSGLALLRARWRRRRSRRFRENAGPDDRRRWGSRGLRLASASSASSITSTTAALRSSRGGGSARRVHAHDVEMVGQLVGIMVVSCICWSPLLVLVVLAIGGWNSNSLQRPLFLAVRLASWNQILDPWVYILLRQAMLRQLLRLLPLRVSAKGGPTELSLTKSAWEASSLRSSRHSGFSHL

[2] = AUC (0 to infinity) in rat at 1 mg/kg, po; type: ADME, organism-based; set-up: dose 1 mg/kg, route oral, time infinity; details: in vivo
[3] = Half life in rat at 1 mg/kg, po; type: ADME, organism-based; details: in vivo
[4] = AUC (0 to infinity) in rat at 1 mg/kg, iv; type: ADME, organism-based; set-up: dose 1 mg/kg, time infinity, route intravenous; details: in vivo
[5] = Total clearance in rat at 1 mg/kg, iv; type: ADME, organism-based; details: in vivo
Rattus norvegicus [6] = test: Reduction in 17-PTP induced bladder contraction in Wistar rat assessed as change in intravesical pressure administered intravenously pretreated for 5 followed by 17-PTP challenge at every 30 mins interval for 245 mins; type: functional
[7] = Half life in rat at 1 mg/kg, iv; type: ADME, organism-based; details: in vivo
[8] = AUC (0 to 8 hrs) in rat at 1 mg/kg, po; type: ADME, organism-based; set-up: time < 8 hr, dose 1 mg/kg, route oral; details: in vivo
Rattus norvegicus [9] = test: Reduction in 17-PTP induced bladder contraction in Wistar rat assessed as change in intravesical pressure administered intraduodenal pretreated for 5 followed by 17-PTP challenge at every 30 mins interval for 245 mins; type: functional
[10] = Oral bioavailability in rat at 1 mg/kg; type: ADME, organism-based; details: in vivo
[11] = Volume of distribution in rat at 1 mg/kg, iv; type: ADME, organism-based; details: in vivo
[12] = AUC (0 to 8 hrs) in rat at 1 mg/kg, iv; type: ADME, organism-based; set-up: dose 1 mg/kg, time < 8 hr, route intravenous; details: in vivo

SMILES: O=C(O)c1ccn(Cc2cc(Cl)cc3cc(-c4ccccc4)nn23)n1
IC50 [1]: 89 nM

SMILES: COc1ccc(-c2cc3cc(Cl)cc(Cn4nc(C(=O)O)cc4C)n3n2)cc1
IC50 [1]: 410 nM

SMILES: Cc1cc(C(=O)O)nn1Cc1cc(Cl)cc2cc(CC(C)C)nn12
IC50 [1]: 1400 nM

SMILES: CCCCc1cc2cc(Cl)cc(Cn3nc(C(=O)O)cc3C)n2n1
IC50 [1]: 1900 nM

SMILES: Cc1cc(C(=O)O)nn1Cc1cc(Cl)cc2cc(-c3ccccc3)nn12
AUC(0-inf) [2]: 6030 ng·h/mL
half-life [3]: 4.28 h
AUC(0-inf) [4]: 7470 ng·h/mL
IC50 [1]: 9.4 nM
clearance [5]: 2.59 mL/min/kg
Activity (Rattus norvegicus [6]): Dose-dependent effect
half-life [7]: 4.99 h
AUC(0-t) at 8 h [8]: 4870 ng·h/mL
Activity (Rattus norvegicus [9]): Dose-dependent effect
bioavailability [10]: 81%
Vd [11]: 0.908 L/kg
AUC(0-t) at 8 h [12]: 5010 ng·h/mL

SMILES: Cc1cc(C(=O)O)nn1Cc1cc(Cl)cc2cc(-c3ccccc3Cl)nn12
IC50 [1]: 220 nM

SMILES: Cc1cc(C(=O)O)nn1Cc1cc(Cl)cc2cc(C3CC3)nn12
IC50 [1]: 180 nM

SMILES: COc1cc(Cn2nc(C(=O)O)cc2C)n2nc(-c3ccccc3)cc2c1
IC50 [1]: 9600 nM

SMILES: Cc1cc(C(=O)O)nn1Cc1cc(Cl)cc2cc(C(C)(C)C)nn12
IC50 [1]: 2100 nM

SMILES: CCc1cc(C(=O)O)nn1Cc1cc(Cl)cc2cc(-c3ccccc3)nn12
IC50 [1]: 300 nM

SMILES: CC(=O)c1cc(Cn2nc(C(=O)O)cc2C)n2nc(-c3ccccc3)cc2c1
IC50 [1]: 600 nM

SMILES: CC(C)Cc1cc(C(=O)O)nn1Cc1cc(Cl)cc2cc(-c3ccccc3)nn12
IC50 [1]: 2000 nM

SMILES: Cc1cc(Cn2nc(C(=O)O)cc2C)n2nc(-c3ccccc3)cc2c1
IC50 [1]: 450 nM

SMILES: Cc1cc(C(=O)O)nn1Cc1c(Cl)ccc2cc(-c3ccccc3)nn12
IC50 [1]: 540 nM

SMILES: Cc1cc(C(=O)O)nn1Cc1cc(C#N)cc2cc(-c3ccccc3)nn12
IC50 [1]: 1000 nM

Further lines, results first:

IC50 [1]: 410 nM
SMILES: Cc1cc(C(=O)O)nn1Cc1cc(Cl)cc2cc(C3CCCC3)nn12

IC50 [1]: 150 nM
SMILES: Cc1cc(C(=O)O)nn1Cc1cc(Cl)cc2cc(-c3cccc(Cl)c3)nn12

IC50 [1]: 1200 nM
SMILES: CC(C)c1cc(C(=O)O)nn1Cc1cc(Cl)cc2cc(-c3ccccc3)nn12

IC50 [1]: 1500 nM
SMILES: COc1ccc2cc(-c3ccccc3)nn2c1Cn1nc(C(=O)O)cc1C

IC50 [1]: 120 nM
SMILES: Cc1cc(C(=O)O)nn1Cc1cccc2cc(-c3ccccc3)nn12

IC50 [1]: 71 nM
SMILES: Cc1cc(C(=O)O)nn1Cc1cc(Cl)cc2cc(C3CCCCC3)nn12

IC50 [1]: 360 nM
SMILES: C=Cc1cc(Cn2nc(C(=O)O)cc2C)n2nc(-c3ccccc3)cc2c1

IC50 [1]: 110 nM
SMILES: COc1cccc(-c2cc3cc(Cl)cc(Cn4nc(C(=O)O)cc4C)n3n2)c1

IC50 [1]: 290 nM
SMILES: Cc1cc(C(=O)O)nn1Cc1cc(Cl)cc2cc(-c3ccc(Cl)cc3)nn12

IC50 [1]: 22 nM
SMILES: Cc1cc(C(=O)O)nn1Cc1cc(Cl)cc2cc(-c3ccccc3)oc12

IC50 [1]: 1500 nM
SMILES: CCCC/C=C/c1cc(Cn2nc(C(=O)O)cc2C)n2nc(-c3ccccc3)cc2c1

IC50 [1]: 840 nM
SMILES: COc1ccccc1-c1cc2cc(Cl)cc(Cn3nc(C(=O)O)cc3C)n2n1

IC50 [1]: 300 nM
SMILES: Cc1cc(C(=O)O)nn1Cc1cc(C(F)(F)F)cc2cc(-c3ccccc3)nn12

IC50 [1]: 2600 nM
SMILES: Cc1cc(C(=O)O)nn1Cc1ccc(Cl)c2cc(-c3ccccc3)nn12

IC50 [1]: 1100 nM
SMILES: COc1ccc(Cn2nc(C(=O)O)cc2C)n2nc(-c3ccccc3)cc12

IC50 [1]: 190 nM
SMILES: O=C(O)c1ccn(Cc2cc(Cl)cc3cc(-c4ccccc4)nn23)c1

IC50 [1]: 97 nM
SMILES: CCCc1cc(C(=O)O)nn1Cc1cc(Cl)cc2cc(-c3ccccc3)nn12
